Experimental data taken from publication PMC8491553 (ACS Medicinal Chemistry Letters, 2021).

Target: SARS-CoV-2 main protease (3CLpro) (Severe acute respiratory syndrome coronavirus 2, UniProt P0DTD1)
Format: biochemical

SMILES	activity as main protease inhibitor (in words)
Cn1nc(C(=O)N2CC3(C)CN(C(=O)c4nn(C)c5c4CCc4ccccc4-5)CC(C)(C2)C3=O)c2c1-c1ccccc1CC2 [Compound 2j]	submicromolar range
C#CCN1CC2(C)CN(CC#C)CC(C)(C1)C2=O [Compound 4c]	lower micromolar range
CC12CN(Cc3ccccc3)CC(C)(CN(Cc3ccccc3)C1)C2=O [Compound 4d]	submicromolar activity
CC12CN(CC#N)CC(C)(CN(CC#N)C1)C2=O [Compound 4l]	lower micromolar range
CC12CN(CC(=O)O)CC(C)(CN(CC(=O)O)C1)C2=O [Compound 4m]	lower micromolar range
Cc1cc(CN2CC3(C)CN(Cc4cc(C)no4)CC(C)(C2)C3=O)on1 [Compound 4o]	lower micromolar range
CC(C)(C)OC(=O)Cn1cc(CN2CC3(C)CN(Cc4cn(CC(=O)OC(C)(C)C)nn4)CC(C)(C2)C3=O)nn1 [Compound 4p]	lower micromolar range
CC(C)(C)OC(=O)NCCn1cc(CN2CC3(C)CN(Cc4cn(CCNC(=O)OC(C)(C)C)nn4)CC(C)(C2)C3=O)nn1 [Compound 4q]	submicromolar activity
CC12CN(Cc3cn(Cc4ccccc4)nn3)CC(C)(CN(Cc3cn(Cc4ccccc4)nn3)C1)C2=O [Compound 4r]	lower micromolar range
CC(C)Cc1ccc(C(C)C(=O)O)cc1 (stereo not shown) [Ibuprofen, reference compound]	no activity at all
